Experimental data as given in ChEMBL document CHEMBL1201862, “PubChem BioAssay data set” (2004).
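Compound exposure: 48 hours, 5 concentrations, 96-well plates. The concentration for 50% growth inhibition is given as GI50.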 The source made the active and inactive calls. Rule as the data show it: active = GI50 up to about 1.1 µM and inactive = higher.

Columns and labels:
Assay in all cases: NCI anticancer screen, dose series, 48 h
BT-549 = system: BT-549
CAKI-1 = system: CAKI-1
CCRF-CEM = system: CCRF-CEM
DU-145 = system: DU-145
HCT-15 = system: HCT-15
K562 = system: K562
LOX IMVI = system: LOX IMVI
M19-MEL = system: M19-MEL
MCF7 = system: MCF7
NCI-H226 = system: NCI-H226
NCI-H460 = system: NCI-H460
NCI/ADR-RES = system: NCI/ADR-RES
OVCAR-5 = system: OVCAR-5
OVCAR-8 = system: OVCAR-8
PC-3 = system: PC-3
RXF 393 = system: RXF 393
SN12C = system: SN12C
SNB-19 = system: SNB-19
TK-10 = system: TK-10
U-251 = system: U-251

## Cc1nc(N)nc(N)c1-c1ccc(Cl)c(Cl)c1 [METOPRINE]
BT-549
  GI50: 21 µM (inactive)
CAKI-1
  GI50: 5.18 µM (inactive)
CCRF-CEM
  GI50: 432 nM (active)
DU-145
  GI50: 1.72 µM (inactive)
HCT-15
  GI50: 145 nM
K562
  GI50: 21.9 nM (active)
LOX IMVI
  GI50: 54 nM (active)
M19-MEL
  GI50: 2.36 µM (inactive)
MCF7
  GI50: 826 nM (active)
NCI-H226
  GI50: > 33.3 µM (inactive)
NCI-H460
  GI50: 0.0239 µM (active)
NCI/ADR-RES
  GI50: 1.1 µM (active)
OVCAR-5
  GI50: 14.2 µM (inactive)
OVCAR-8
  GI50: 603 nM (active)
PC-3
  GI50: 78.5 nM (active)
RXF 393
  GI50: 13.2 µM (inactive)
SN12C
  GI50: 664 nM (active)
SNB-19
  GI50: 2.69 µM (inactive)
TK-10
  GI50: 9.2 µM (inactive)
U-251
  GI50: 635 nM (active)

## CC(=O)OC(C)(C)/C=C/C(=O)[C@](C)(O)[C@H]1[C@H](O)C[C@@]2(C)[C@@H]3CC=C4[C@@H](C[C@H](O)[C@H](O)C4(C)C)[C@]3(C)C(=O)C[C@]12C
CAKI-1
  GI50: 0.385 µM (active)
CCRF-CEM
  GI50: 229 nM (active)
HCT-15
  GI50: 294 nM
K562
  GI50: 272 nM (active)
LOX IMVI
  GI50: 303 nM (active)
M19-MEL
  GI50: 0.515 µM (active)
NCI-H226
  GI50: 0.984 µM (active)
NCI-H460
  GI50: 1.07 µM (active)
OVCAR-5
  GI50: 0.883 µM (active)
OVCAR-8
  GI50: 330 nM (active)
RXF 393
  GI50: 0.383 µM (active)
SN12C
  GI50: 401 nM (active)
SNB-19
  GI50: 0.7 µM (active)
TK-10
  GI50: 0.548 µM (active)
U-251
  GI50: 687 nM (active)

## COc1ccc(C2C(Cl)C(=O)N2NC(=O)c2ccc(NC(C)=O)cc2)cc1 (stereo not given)
CAKI-1
  GI50: > 100 µM (inactive)
CCRF-CEM
  GI50: > 100000 nM (inactive)
HCT-15
  GI50: > 100000 nM
K562
  GI50: > 100000 nM (inactive)
LOX IMVI
  GI50: > 100000 nM (inactive)
M19-MEL
  GI50: > 100 µM (inactive)
NCI-H226
  GI50: > 100 µM (inactive)
NCI-H460
  GI50: > 100 µM (inactive)
OVCAR-5
  GI50: > 100 µM (inactive)
OVCAR-8
  GI50: > 100000 nM (inactive)
RXF 393
  GI50: > 100 µM (inactive)
SN12C
  GI50: > 100000 nM (inactive)
SNB-19
  GI50: > 100 µM (inactive)
TK-10
  GI50: > 100 µM (inactive)
U-251
  GI50: > 100000 nM (inactive)
